Results published in ChEMBL document CHEMBL5149982, “Development of Potent NEDD8-Activating Enzyme Inhibitors Bearing a Pyrimidotriazole Scaffold” (J Med Chem, 2021).

What was measured:
NEDD8 activating enzyme [1] = target: T1, NEDD8 activating enzyme (Homo sapiens, UniProt Q8TBC4); assay: Inhibition of NAE (unknown origin); type: protein-complex assay
T1 sequence (Q8TBC4 whole entry): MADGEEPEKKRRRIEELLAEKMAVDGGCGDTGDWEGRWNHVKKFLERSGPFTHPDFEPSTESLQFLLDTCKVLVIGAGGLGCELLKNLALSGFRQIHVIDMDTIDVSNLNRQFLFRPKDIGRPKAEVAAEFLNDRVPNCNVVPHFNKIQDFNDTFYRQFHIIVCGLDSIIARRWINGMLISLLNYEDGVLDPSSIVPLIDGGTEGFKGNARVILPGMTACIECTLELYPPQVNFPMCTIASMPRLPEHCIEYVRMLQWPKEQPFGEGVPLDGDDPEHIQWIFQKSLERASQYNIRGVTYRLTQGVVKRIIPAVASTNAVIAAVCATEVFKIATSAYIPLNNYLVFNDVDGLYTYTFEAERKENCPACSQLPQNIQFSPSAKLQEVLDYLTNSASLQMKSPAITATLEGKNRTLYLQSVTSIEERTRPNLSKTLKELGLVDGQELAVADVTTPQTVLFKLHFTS
T1 sequence (Q13564 whole entry): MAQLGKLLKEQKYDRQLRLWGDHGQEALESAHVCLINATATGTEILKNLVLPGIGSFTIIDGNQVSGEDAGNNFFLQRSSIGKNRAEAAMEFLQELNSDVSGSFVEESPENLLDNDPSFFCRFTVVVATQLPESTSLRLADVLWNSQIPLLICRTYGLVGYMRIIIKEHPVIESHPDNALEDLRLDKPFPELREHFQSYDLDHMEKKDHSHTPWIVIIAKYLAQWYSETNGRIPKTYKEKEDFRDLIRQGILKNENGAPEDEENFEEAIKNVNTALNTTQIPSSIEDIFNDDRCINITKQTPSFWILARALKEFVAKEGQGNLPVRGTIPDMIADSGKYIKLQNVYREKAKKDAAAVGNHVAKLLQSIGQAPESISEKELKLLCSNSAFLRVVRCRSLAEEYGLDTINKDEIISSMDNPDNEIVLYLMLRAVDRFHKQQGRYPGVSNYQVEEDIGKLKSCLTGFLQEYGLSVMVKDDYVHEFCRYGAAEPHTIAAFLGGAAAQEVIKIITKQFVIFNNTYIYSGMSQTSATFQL

HCT-116 = assay: Antiproliferative activity against human HCT-116 cells assessed as cell growth inhibition by sulforhodamine B assay; type: functional, cell-based
NEDD8 activating enzyme [2] = target: T1, NEDD8 activating enzyme; assay: Inhibition of NAE (unknown origin) mediated neddylation assessed as decrease in NEDD8-Ubcl2 adduct formation incubated for 2 hrs in presence of L-glutathione and ATP by HTRF assay; type: protein-complex assay
[3] = target: Voltage-gated inwardly rectifying potassium channel KCNH2 (Homo sapiens, UniProt Q12809); assay: Inhibition of hERG channel; type: toxicity
Sequence of Voltage-gated inwardly rectifying potassium channel KCNH2 (Q12809 whole entry): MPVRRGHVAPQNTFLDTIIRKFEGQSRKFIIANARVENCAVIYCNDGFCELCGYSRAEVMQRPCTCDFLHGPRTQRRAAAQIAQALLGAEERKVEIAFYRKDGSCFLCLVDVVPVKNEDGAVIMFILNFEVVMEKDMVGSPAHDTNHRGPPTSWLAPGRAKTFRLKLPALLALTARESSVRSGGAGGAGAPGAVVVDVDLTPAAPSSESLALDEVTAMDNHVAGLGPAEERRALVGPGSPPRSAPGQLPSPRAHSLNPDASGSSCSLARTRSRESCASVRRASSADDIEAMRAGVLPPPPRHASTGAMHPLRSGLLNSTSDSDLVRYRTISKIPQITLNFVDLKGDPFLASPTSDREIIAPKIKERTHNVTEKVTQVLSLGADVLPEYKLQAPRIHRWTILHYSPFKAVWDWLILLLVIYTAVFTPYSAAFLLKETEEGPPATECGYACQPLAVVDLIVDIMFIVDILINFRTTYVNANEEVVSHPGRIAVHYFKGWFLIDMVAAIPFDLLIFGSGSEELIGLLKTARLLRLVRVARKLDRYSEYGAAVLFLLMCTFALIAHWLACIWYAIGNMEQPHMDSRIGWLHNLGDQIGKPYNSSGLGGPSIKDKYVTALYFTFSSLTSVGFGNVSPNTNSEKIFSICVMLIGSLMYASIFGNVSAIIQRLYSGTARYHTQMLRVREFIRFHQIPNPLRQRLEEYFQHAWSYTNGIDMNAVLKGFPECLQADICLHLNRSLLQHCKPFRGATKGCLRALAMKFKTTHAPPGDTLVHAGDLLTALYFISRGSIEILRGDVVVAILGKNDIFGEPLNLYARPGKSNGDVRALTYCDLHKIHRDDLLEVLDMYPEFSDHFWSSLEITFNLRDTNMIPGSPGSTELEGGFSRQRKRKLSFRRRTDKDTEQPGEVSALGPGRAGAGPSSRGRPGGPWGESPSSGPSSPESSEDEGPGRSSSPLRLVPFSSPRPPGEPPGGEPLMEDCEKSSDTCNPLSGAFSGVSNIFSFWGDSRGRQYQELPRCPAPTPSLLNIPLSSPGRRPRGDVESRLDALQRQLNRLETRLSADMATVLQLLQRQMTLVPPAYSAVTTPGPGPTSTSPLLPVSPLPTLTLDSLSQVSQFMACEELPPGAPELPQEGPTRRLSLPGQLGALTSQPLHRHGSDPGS

**Q.** How did the IC50 (NEDD8 activating enzyme [1]) turn out when NS(=O)(=O)OC[C@H]1O[C@@H](n2cnc3c(N[C@H]4CCc5ccccc54)ncnc32)[C@H](O)[C@@H]1O was run?
**A.** 10 nM

**Q.** How did the IC50 (HCT-116) turn out when NS(=O)(=O)OC[C@@H]1C[C@@H](n2nnc3c(N[C@H]4CCc5ccccc54)ncnc32)C[C@@H]1O was run?
**A.** 43.2 nM

**Q.** And the IC50 (NEDD8 activating enzyme [2])?
**A.** 0.21 nM

**Q.** What about the IC50 [3] of the same compound?
**A.** > 40000 nM

**Q.** How did the IC50 (HCT-116) turn out when NS(=O)(=O)OC[C@@H]1C[C@@H](n2nnc3c(NCc4cccs4)ncnc32)C[C@@H]1O was run?
**A.** > 10000 nM

**Q.** What about the IC50 (NEDD8 activating enzyme [2]) of the same compound?
**A.** 15.9 nM

**Q.** For CCOC(=O)N1CCC2(CC1)C[C@H](Nc1ncnc3c1nnn3[C@@H]1C[C@@H](COS(N)(=O)=O)[C@@H](O)C1)c1ccccc12, which IC50 (HCT-116) is on record?
**A.** 102 nM

**Q.** And the IC50 (NEDD8 activating enzyme [2])?
**A.** 2.23 nM
